# Measurements: US9107853B2, “Compositions containing phenolic compounds and hydrotropes for cosmetic use” (L'Oreal S.A., priority 2012, dated 2015)
# Legend:
# Type in all cases: physicochemical
# [1] = Solubility in organic solvent PEG-4
# Description: (§1) Crystallization or precipitation occurs after mixing the glycol phase and water phase.
# [2] = Solubility in water, with or without hydrotropes, at room temperature
# [3] = Stability of solutions (pH, dilution in water)
# Description: as §1
# The solubility of baicalin can be increased by raising the concentration of hydrotropes.
structure (smiles),measurement,setting,value
O=C(O)[C@H]1O[C@@H](Oc2cc3oc(-c4ccccc4)cc(=O)c3c(O)c2O)[C@H](O)[C@@H](O)[C@@H]1O [Baicalin],amount dissolved by PEG-4,[1],3%
same,water solubility,[2],< 0.01%
same,degradation as a function of pH,[3]; aqueous,degradation happens at pH>5
same,stability of solution after dilution in water,[3]; hydrotrope solution diluted in water,still stable if diluted in water
same,stability of solution after dilution in water,"[3]; solution in organic solvent such as PEG-4, diluted in water",not stable any more
